Consider eight compounds from patent US20030073731A1, “Compositions and methods of the use thereof achiral analogues of CC-1065 and the duocarmycins” (priority 2000, published 2003).

In series [1] the test system is plasmid pBR322 DNA. The series can be described thus: Taq polymerase stop assay. The series is classed as biochemical.
Series [2] concerns K562 human chronic myeloid leukemia cells. The series can be described thus: cells. The series is classed as cell-based. The method, then:
The cytotoxicity was determined using a MTT tetrazolium dye assay (42). […] The incubation was terminated by centrifugation (5 minutes, 300 g) and the cells were washed once with drug-free medium. Following the appropriate drug treatment, the cells were transferred to 96-well microtitre plates, 10^4 cells per well, 8 wells per sample. Plates were then kept in the dark at 37° C. in a humidified atmosphere containing 5% CO2. […] Following incubation of the plates for 4 days (to allow control cells to increase in number by 10 fold) 20 μL of a 5 mg/mL solution of MTT in phosphate buffered saline was added to each well and the plates further incubated for 5 hours. The plates were then centrifuged for 5 minutes at 300 g and the bulk of the medium pipetted from the cell pellet leaving 10-20 μL per well. 200 μL DMSO was added to each well and the samples agitated to ensure complete mixing. The optical density was the read at a wavelength of 550 nm on a Titertek Multiscan ELISA plate reader, and the dose-response curve was constructed.

Series [3] has as its system L1210 leukemia cells. The experiment in a line: cells. In kind it is cell-based, murine. The note with it: Mus musculus; L1210, 72 hr incubation. The procedure:
(§1) The P815 and L1210 cell lines were obtained from American Type Tissue Culture Collection (ATCC). The cell lines were grown in Delbecco's Modified Eagle Medium (DMEM, Atlanta Biologicals) supplemented with 10% fetal bovine serum, Hepes Buffer (2 mM, Mediatech Cellgro, 25-060-Cl), L-Glutamine (2 mM, Mediatech Cellgro), and penicillin/streptomycin (50,000 units penicillin, […] streptomycin, Atlanta Biologicals). Cells were maintained at 37° C. in a 5% humidified CO2 atmosphere. […] This cell suspension (100 μL) was added to 96 well flat-bottom cell culture plates. At this concentration, 80,000 cells were seeded in each well. Drug solutions (dissolved in DMSO and diluted in DMEM) were added to each well (5 μL/well) resulting in final concentrations ranging from […] to 1×10^−12 M. Quadruplicate wells were prepared for each drug concentration. The plates were incubated for 72 hr at 37° C. in a 5% CO2 atmosphere. MTT (3-(4,5-dimethylthiazol-2-yl)-2,5-diphenyl tetrazolium bromide) was dissolved in PBS (5 mg/ml). After the indicated cell incubation period, 10 μL of this stock MTT solution was added to each well and the plates were further incubated for 4 h at 37° C. in a 5% CO2 atmosphere. […] The contents of the well were mixed thoroughly by pipetting the cell suspension up and down and the plates were allowed to sit at room temperature for 15 min in order to allow for full development of the purple color. The plates were read on a Dynatech Plate Reader, utilizing Dynex Revelation 3.2 software, with a test wavelenth of 570 nm and a reference wavelength of […].

Series [4] deals with panel of 60 human cancer cell lines. The following applies: 48 hour exposure.
The subject of series [5] is mouse L1210 leukemia cells. The note with it: cited from earlier work.
The conditions of series [6]: mice, therapeutic doses; cited from earlier work.
Series [7] relates to L1210 leukemia. The note with it: carzelesin 400 μg/kg, adozelesin 100 μg/kg; cited from earlier work.
The test system of series [8] is P815 mastocytoma cells. The experiment in a line: cells. The following applies: Mus musculus; P815, 72 hr incubation. The series is classed as cell-based, murine. The method, then: as §1
The test system of series [9] is human tumor cells cultivated in polyvinylidene fluoride (PVDF) hollow fibers. The experiment in a line: Hollow fiber assay for preliminary in vivo testing. Set-up: species or system mice.
Method: For these assays, human tumor cells are cultivated in polyvinylidene fluoride (PVDF) hollow fibers, and a sample of each cell line is implanted into each of two physiologic compartments (intraperitoneal and subcutaneous) in mice. […] Three mice are treated with potential antitumor compounds at each of 2 test doses by the intraperitoneal route using a QD×4 treatment schedule. Vehicle controls consist of 6 mice receiving the compound diluent only. The fiber cultures are collected on the day following the last day of treatment. To assess anticancer effects, viable cell mass is determined for each of the cell lines using a formazan dye (MTT) conversion assay. From this, the %T/C can be calculated using the average optical density of the compound treated samples divided by the average optical density of the vehicle controls. In addition, the net increase in cell mass can be determined for each sample as a sample of fiber cultures are assessed for viable cell mass on the day of implantation into mice. Thus, the cytostatic and cytocidal capacities of the test compound can be assessed.
The data are reported as %T/C for each of the 2 compound doses against each of the cell lines with separate values calculated for the intraperitoneal and subcutaneous samples.
The intraperitoneal and subcutaneous samples are scored separately so that criteria (1) and (2) can be evaluated.
Series [10] relates to melanoma. The note with it: phase I clinical trial; cited from earlier work.
Where [11] appears, read: 72 h, continuous exposure (3 days).

As for “4-(2-Bromoethyl)-3-[5-(5-benzofuran-2-carboxamido)indole-2-carboxamido]phenol [Compound 2]”, the “efficiency in alkylating DNA compared with chloro-compound 1” value in series [1] was “less efficient in alkylating DNA”.
Regarding `COc1cc2cc(C(=O)Nc3cc(O)c4ccccc4c3CCCl)[nH]c2c(OC)c1OC` [Compound 26, 4-(2-Chloroethyl)-3-(5,6,7-trimethoxyindole-2-carboxamido)-1-naphthol], the IC50 in [2] (1 hour exposure) stood at 17 nM; in series [2] (setting [11]) it was 150 nM; in [3] it was 55 nM. Also, the “cytotoxic activity in the NCI screen” value in series [4] is “activity in the micromolar range”.
Take (+)-CC1065: the IC50 in [5] (L1210) is 0.02 nM. The “IC50 values” in series [5] (growth of mouse L1210 leukemia cells in culture) is recorded as “pM range”. Besides, the delayed lethality entry in series [6] is “delayed lethality in mice at therapeutic doses”.
`COc1cc2cc(C(=O)Nc3cc(N)ccc3CCCl)[nH]c2c(OC)c1OC` [Compound 24, 4-(2-Chloroethyl)-3-(5,6,7-trimethoxyindole-2-carboxamido)aniline] displayed an IC50 in series [2] (setting [11]) of 1300 ± 300 nM.
As to `CCN(CC)c1ccc2cc(C(=O)Nc3ccc4[nH]c(C(=O)N5C[C@@H](CCl)c6c5cc(OC(=O)Nc5ccccc5)c5[nH]cc(C)c65)cc4c3)oc2c1` [carzelesin], the ILS in series [7] was 150±8 % ILS.
Turning to `COc1cc2cc(C(=O)Nc3cc(N)c4ccccc4c3CCCl)[nH]c2c(OC)c1OC` [Compound 25, 4-(2-Chloroethyl)-3-(5,6,7-trimethoxyindole-2-carboxamido)-1-naphthylamine], the IC50 in series [2] (1 hour exposure) was 18 nM; in [2] (setting [11]), 45 nM; in [3], 180 nM; in [8] it was 68 nM. Further, in series [9] (hollow fiber studies), the cell kill entry is “cell kill observed”. This compound gave an SC score in series [9] (subcutaneous fibers) of 8. The “cytotoxic activity in the NCI screen” value in [4] is “activity in the micromolar range”.
As to `Cc1c[nH]c2c1[C@@]13C[C@@H]1CN(C(=O)c1cc4cc(NC(=O)c5cc6ccccc6o5)ccc4[nH]1)C3=CC2=O` [adozelesin], the clinical response result in series [10] was “partial response on a melanoma patient”. Besides, the ILS in series [7] is recorded as 90±11 % ILS.
On to `COC(=O)c1cc2c([nH]1)C(=O)C=C1N(C(=O)c3cc4cc(OC)c(OC)c(OC)c4[nH]3)CC3CC123` (single isomer, unassigned; (+)) [DUMSA, (+)-duocarmycin SA], for which the delayed lethality result in series [6] is listed as “devoid of this toxic side effect”.
